According to PMC10123126, “Insights into translocation mechanism and ribosome evolution from cryo-EM structures of translocation intermediates of Giardia intestinalis” (Nucleic Acids Research, 2023):

Target: T1, eEF2 (Giardia duodenalis, UniProt A8BU59)
T1 construct: gene GL50803_0017570; GDP in G domain (domain I)
Assay: cryo-EM structure
Type: binding

T1 sequence (A8BU59 1-898): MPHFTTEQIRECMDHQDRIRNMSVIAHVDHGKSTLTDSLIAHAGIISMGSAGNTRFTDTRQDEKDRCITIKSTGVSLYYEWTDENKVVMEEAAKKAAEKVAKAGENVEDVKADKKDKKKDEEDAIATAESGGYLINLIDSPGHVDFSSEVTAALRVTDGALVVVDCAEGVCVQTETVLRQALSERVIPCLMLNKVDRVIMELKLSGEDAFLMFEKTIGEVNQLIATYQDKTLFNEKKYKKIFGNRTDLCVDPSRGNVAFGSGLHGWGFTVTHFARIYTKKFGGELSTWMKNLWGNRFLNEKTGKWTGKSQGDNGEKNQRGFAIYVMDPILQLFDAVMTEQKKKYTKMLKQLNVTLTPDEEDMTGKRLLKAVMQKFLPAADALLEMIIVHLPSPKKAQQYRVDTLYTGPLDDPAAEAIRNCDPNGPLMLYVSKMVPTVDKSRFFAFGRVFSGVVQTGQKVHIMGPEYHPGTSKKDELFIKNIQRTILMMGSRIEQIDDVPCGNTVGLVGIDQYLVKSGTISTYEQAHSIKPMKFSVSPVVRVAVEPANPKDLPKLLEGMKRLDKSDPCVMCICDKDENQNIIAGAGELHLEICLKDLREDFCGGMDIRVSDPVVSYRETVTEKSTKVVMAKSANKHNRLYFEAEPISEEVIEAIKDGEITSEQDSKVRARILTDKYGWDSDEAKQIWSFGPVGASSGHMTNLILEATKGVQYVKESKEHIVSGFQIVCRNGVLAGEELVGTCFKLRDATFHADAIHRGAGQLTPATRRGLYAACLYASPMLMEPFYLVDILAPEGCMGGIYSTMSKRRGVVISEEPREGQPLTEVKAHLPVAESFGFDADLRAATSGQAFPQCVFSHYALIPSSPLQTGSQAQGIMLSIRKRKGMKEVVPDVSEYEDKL

**Q.** With Nc1nc2c(ncn2[C@@H]2O[C@H](COP(=O)(O)OP(=O)(O)O)[C@@H](O)[C@H]2O)c(=O)[nH]1 [GDP] as the compound, how does the cryo-EM structure (ribosome-bound eEF2, state B (chimeric hybrid), G domain, P-loop (G1), G4 and G5 motifs, naturally bound, no inhibitor or analog added) read?
**A.** Its cryo-EM structure is “We found a clear density of GDP in the G domain of eEF2”.

**Q.** With O=P(O)(O)O [Pi] as the compound, how does the cryo-EM structure (ribosome-bound eEF2·GDP, state B, leaving phosphate of GTP hydrolysis, held by H143 of switch-II) read?
**A.** Its cryo-EM structure is “A distinct density of the ‘leaving Pi’ group can be seen”.
